Results taken from patent US20240157017A1, “A MEDICAL DRESSING COMPRISING A BACTERIOSTATIC COMPOSITION” (Mölnlycke Health Care AB, priority 2021, published 2024).

How the values were obtained:
[1] = test system: Pseudomonas aeruginosa (ATCC #15692, PaO1); assay: Bacteriostatic effect on planktonic cultures with different bacterial inoculum sizes in SWF; format: cell-based; details: 3 mM deferiprone in SWF
Procedure: An evaluation of possible bacteriostatic effect of deferiprone (3 mM) on the gram-negative bacterium Pseudomonas aeruginosa (ATCC #15692, PaO1) and effect of bacterial start concentrations was performed. Deferiprone (3 mM) was dissolved into Simulated Wound Fluid (SWF) (fetal bovine serum (FBS) and Peptone Water (PW) mixed in equal proportions, which correspond to the protein and electrolyte concentration of wound exudates (Emiko Aiba-Kojima, MD et.al Wound Rep Reg (2007) 15 511-520; Trengove, N et al Wound Rep Reg (1996) 4 1067-1927)). Bacterial concentrations ranging from 10−1×10^8 CFU/ml were inoculated into different test tubes +/− Deferiprone (3 mM) in SWF and incubated at 35° C. for 24 hrs before bacterial numbers were determined using petrifilm.

[2] = test system: Pseudomonas aeruginosa (ATCC #15692, PaO1); assay: Bacterial growth in wells of Calgary biofilm device (petrifilm); format: cell-based; details: inoculum 1×10^6 CFU/ml, 24, 48, 72 hrs
Procedure: (§1) An evaluation of possible bacteriostatic effect of deferiprone (3-6 mM) on the gram-negative bacterium Pseudomonas aeruginosa (ATCC #15692, PaO1) and connection to ability to form biofilm on a plastic surface, using the Calgary biofilm device (CBD) (Journal of Clinical Microbiology, June 1999, p. 1771-1776) was performed. This method utilizes 96-well microplates with lids containing 96 plastic cone shaped protrusions that extend into the wells of the plate. By submerging the plastic cones into bacterial solution, biofilm attachment to the pegs can be studied. Different concentrations of Deferiprone (0, 0.37, 0.75, 1.5, 3, 6 mM) were dissolved in Simulated Wound Fluid (SWF) and added to wells in the CBD plate. PaO1 was then inoculated at a total bacterial concentration of 1×10^6 CFU/ml and the lid was placed on the plate. Following incubation at 35° C. for 24, 48, 72 hrs, bacterial concentration from the wells were calculated using petrifilm and the plastic protrusions were analyzed for biofilm attachment using a luminescence kit that quantifies bacterial viability (Promega BacTiter-GLO).

[3] = test system: Pseudomonas aeruginosa (ATCC #15692, PaO1); assay: Biofilm attachment to pegs of Calgary biofilm device (Promega BacTiter-GLO luminescence); format: cell-based
Procedure: as §1

[4] = test system: PaO1 in a biofilm phenotype; assay: Bacteriostatic effect in collagen (wound-like matrix) gels, bacteria in biofilm phenotype; format: cell-based, Pseudomonas aeruginosa; details: 3 mM deferiprone, different start concentrations, 24 hrs at 35° C.
Procedure: Collagen gels were created and inoculated with 1×10^6 CFU/ml PaO1. Gels were incubated for 24 hrs at 35° C. in order to obtain bacteria in biofilm phenotype. New collagen gels +/−3 mM deferiprone were created and different bacterial start concentrations were inoculated into the gels. Following 24 hrs incubation at 35° C., the gels were solubilized and bacterial counts were measured using petrifilm.

[5] = test system: clinical wound isolates of Pseudomonas aeruginosa; assay: Effect on clinical wound isolates in SWF; format: cell-based; details: 3 mM deferiprone in SWF, 24 hrs at 35° C., all isolates tested
Procedure: Bacteriostatic effect of deferiprone was tested on different clinical wound isolates of Pseudomonas aeruginosa. Isolates were typed according to known virulence factors (FIG. 9a) and subjected for treatment +/−3 mM deferiprone in SWF for 24 hrs at 35° C. Bacterial start concentrations and concentrations after treatment were measured using petrifilm.

[6] = test system: Actinobacter baumannii; assay: Bacteriostatic effect on other gram-negative species in SWF; format: cell-based; details: 3 mM deferiprone in SWF, 24 hrs at 35° C.
Procedure: (§2) The bacteriostatic effect of deferiprone was tested on other gram negative species than Pseudomonas aeruginosa in order to see if the bacteriostatic effect of deferiprone extends to other gram negative species. The following bacteria were tested: Actinobacter baumannii, Echerschia coli, Klebsiella pneumoniae +/−3 mM deferiprone in SWF for 24 hrs at 35° C. Bacterial start concentrations and concentrations after treatment were measured using petrifilm.

[7] = test system: Echerschia coli; assay: as above; format: cell-based; details: 3 mM deferiprone in SWF, 24 hrs at 35° C.
Procedure: as §2

[8] = test system: Klebsiella pneumoniae; assay: as above; format: cell-based; details: 3 mM deferiprone in SWF, 24 hrs at 35° C.
Procedure: as §2

[9] = test system: PaO1; assay: Growth of planktonic PaO1 at sub-bacteriostatic concentrations in SWF; format: cell-based, Pseudomonas aeruginosa; details: 1×10^6 CFU/ml, 72 hrs at 35° C.
[10] = test system: virulence factor pyoverdine; assay: Pyoverdine levels in supernatants by LC-MS; format: cell-based, Pseudomonas aeruginosa; details: 0.03 and 0.3 mM deferiprone in SWF, 72 hrs at 35° C.
Procedure: In order to evaluate if sub-bacteriostatic concentrations (<3 mM) of deferiprone have an effect on the virulence factor pyoverdine, supernatants of planktonically grown PaO1 (1×10^6 CFU/ml) +/− deferiprone at 0.3 and 0.03 mM in SWF were analyzed by LC-MS for pyoverdine after 72 hrs at 35° C.

## Cc1c(O)c(=O)ccn1C [deferiprone]
[1]; 35° C., 24 hrs
  bacterial concentration after 24 hrs: equals the bacterial start concentration
[1]; 35° C., 24 hrs, different start inoculums
  effect on growth of PaO1 in planktonic cultures: true bacteriostatic effect
[1]; different start inoculums
  toxicity to PaO1: non-toxic
[2]; 3 mM deferiprone in SWF
  effect on growth of PaO1 in CBD wells: bacteriostatic
[2]; 6 mM deferiprone in SWF
  effect on growth of PaO1 in CBD wells: bacteriostatic
[3]; 3 mM deferiprone in SWF, 24, 48, 72 hrs
  biofilm formation on pegs of CBD plate: No biofilm was formed
[3]; 6 mM deferiprone in SWF, 24, 48, 72 hrs
  biofilm formation on pegs of CBD plate: No biofilm was formed
[3]; all other concentrations (0.37, 0.75, 1.5 mM) of deferiprone in SWF
  biofilm formation on pegs of CBD plate (read-out signal): full growth
[4]
  effect on growth of PaO1 in collagen gel: a bacteriostatic effect is observed
[5]
  effect on growth of clinical wound isolates: bacteriostatic effects
[6]
  effect on growth of Actinobacter baumannii: sensitive
[7]
  effect on growth of Echerschia coli: same bacteriostatic effects
[8]
  effect on growth of Klebsiella pneumoniae: sensitive
[9]; 0.03 mM deferiprone in SWF
  effect on growth characteristics of PaO1: does not affect growth characteristics
[9]; 0.3 mM deferiprone in SWF
  effect on growth characteristics of PaO1: does not affect growth characteristics
[10]
  pyoverdine levels in supernatants: dose-dependent decrease
